Consider six compounds from article PMC6891464, “Radiosynthesis and Biological Investigation of a Novel Fluorine-18 Labeled Benzoimidazotriazine-Based Radioligand for the Imaging of Phosphodiesterase 2A with Positron Emission Tomography” (Molecules, 2019).

For orientation: IC50 means the point on the concentration scale where inhibition reaches its midpoint.

The test system of data set [1] is PDE2A. The data set can be described thus: In vitro autoradiography on pig brain cryosections, blocking studies. The settings on record: 10 µM blocker. In kind it is binding. The method, then:
To verify these findings, blocking studies with 10 µM of TA1 (a potent PDE2 ligand)
Pig brain cryosections (16 µm; Microm HM560 Cryostat, FischerScientific GmbH, Schwerte, Germany) were thawed, dried in a stream of cold air, and preincubated for 10 min with buffer (50 mM TRIS-HCl, pH 7.4, 120 mM NaCl, 5 mM KCl, 2 mM MgCl2) at room temperature. […] The sections were then washed twice with ice-cold 50 mM TRIS-HCl (pH 7.4), dipped in ice-cold deionized water, dried in a stream of cold air, and exposed for 60 min to an image plate. The analysis was performed using an image plate scanner (HD-CR 35; Duerr NDT GmbH, Bietigheim Bissingen, Germany).

For data set [2], the target named is T1, PDE2A (Mus musculus, UniProt Q922S4).
T1 construct: from tissue; host or cells: brain of living female CD-1 mice (in vivo PET)
T1 sequence (Q922S4 1-939): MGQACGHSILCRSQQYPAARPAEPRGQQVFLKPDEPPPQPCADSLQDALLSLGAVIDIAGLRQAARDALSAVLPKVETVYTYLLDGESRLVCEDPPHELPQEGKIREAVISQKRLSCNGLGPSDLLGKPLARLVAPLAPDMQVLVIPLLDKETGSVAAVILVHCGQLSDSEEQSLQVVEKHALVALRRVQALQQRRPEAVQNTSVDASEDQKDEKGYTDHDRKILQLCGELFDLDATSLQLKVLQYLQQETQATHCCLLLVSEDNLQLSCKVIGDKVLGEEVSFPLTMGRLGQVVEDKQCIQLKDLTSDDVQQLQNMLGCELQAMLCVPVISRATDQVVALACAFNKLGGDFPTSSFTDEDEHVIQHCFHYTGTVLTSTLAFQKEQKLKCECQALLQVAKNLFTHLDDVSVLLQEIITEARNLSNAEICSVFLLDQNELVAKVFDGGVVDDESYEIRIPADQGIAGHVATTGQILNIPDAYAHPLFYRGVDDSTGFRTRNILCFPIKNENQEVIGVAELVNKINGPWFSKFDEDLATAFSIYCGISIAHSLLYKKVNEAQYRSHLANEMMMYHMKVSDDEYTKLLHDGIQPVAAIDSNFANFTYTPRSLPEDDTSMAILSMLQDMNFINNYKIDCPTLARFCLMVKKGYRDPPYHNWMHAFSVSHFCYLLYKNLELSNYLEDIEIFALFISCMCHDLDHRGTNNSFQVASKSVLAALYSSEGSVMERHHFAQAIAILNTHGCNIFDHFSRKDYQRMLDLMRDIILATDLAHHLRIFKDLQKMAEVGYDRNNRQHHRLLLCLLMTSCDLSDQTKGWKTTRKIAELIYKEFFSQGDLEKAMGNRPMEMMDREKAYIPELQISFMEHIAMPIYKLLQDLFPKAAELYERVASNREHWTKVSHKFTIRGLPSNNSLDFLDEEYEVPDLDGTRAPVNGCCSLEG
In words: Dynamic PET-MRI studies in CD-1 mice. Format: in vivo. The settings on record: female CD-1 mice, i.v., 5 min p.i.; whole brain, striatum and cerebellum. The method, then:
As reflected by the time-activity curves (TACs) shown in Figure 6, the radioactivity uptake in the whole brain, striatum, and cerebellum reached standardized uptake values (SUVs) of about 0.7 at 5 min p.i., indicating blood-brain barrier penetration.
PET/MRI scans were performed using a preclinical PET/MRI system (nanoScan, Mediso Medical Imaging Systems, Budapest, Hungary). Animals were anesthetized with a mixture of air/isoflurane (2.0%, 200 mL/min) (Anesthesia Unit U-410, agntho’s, Lidingö, Sweden), and their body temperature maintained at 37 °C with a thermal bed system. […] A dynamic 60-min PET scan was started 20 sec before radioligand injection. The list-mode data were reconstructed into 33 frames (12 × 10 sec, 6 × 30 sec, 5 × 1 min, 10 × 5 min) with 3D-ordered subset expectation maximization, 4 iterations, and 6 subsets, using an energy window of 400 to 600 KeV and coincidence mode of 1–5. After the PET scan, an MRI scan was performed for anatomical orientation and attenuation correction on a 1T magnet using a T1-weighted gradient-echo sequence (TR = 15 ms, TE = 2.6 ms). The data analysis was done with PMOD (PMOD Technologies Ltd., Zurich, Switzerland, v. 3.6), and an atlas-based method was used to obtain SUV time-activity curves for the striatum, cerebellum, and the whole brain.

Data set [3] can be described thus: In vivo metabolism of the radioligand in mice. Also on record: species or system mouse. The settings on record: i.v., 30 min p.i., radio-HPLC. The protocol: Prior to the analysis with RP-HPLC, the samples were treated with a mixture of MeCN/H2O (4:1, v/v) to precipitate the proteins. The recovery of radioactivity in plasma and brain samples was 96% and 99%, respectively. […] As shown in the chromatograms (Figure 5), the two radio-metabolites ([^18F]M1 and [^18F]M2) found in the brain were also observed in the corresponding plasma sample, indicating their ability to penetrate the blood-brain barrier. […] On the basis of the in vitro metabolites M1 and M2, both elucidated by LC-MS in the mentioned study, we can conclude about the brain penetrating radio-metabolites [^18F]M1 and [^18F]M2 as products of N-oxidation or C-hydroxylation. Besides, some of the more polar radio-metabolites detected in plasma could only tentatively be assigned as formed by mono-oxygenation, di-oxygenation, reduction, and demethylation, but were not investigated further. […]
Protein precipitation of plasma and brain samples was performed in duplicate with ice-cold MeCN/H2O (8:2, v/v), which was added to the samples (sample/solvent, 1:4, v/v). […] The combined supernatants were concentrated at 70 °C under nitrogen stream until a remaining volume of 100 µL and subsequently quantified by analytical radio-HPLC with an isocratic system (42% MeCN/20 mM NH4OAcaq.; flow rate: 1.0 mL/min). […]

The nature of data set [4]: In vitro stability of the radioligand. In kind it is physicochemical. The settings on record: PBS, pig plasma, n-octanol and saline formulation containing 10% ethanol; 40 °C, up to 1 h. The protocol: (§1) The lipophilicity was determined by the shake-flask method in the n-octanol/PBS system. […] Moreover, the big discrepancy between the experimental and the calculated logD7.4 value was already observed for our PDE2 tracer [^18F]TA5 and has been previously discussed. It is assumed that the experimentally determined higher hydrophilicity of [^18F]TA5 might be due to the solvation effect related to hydrogen bonding and ionization of the radioligand in the aqueous buffered system. Whereas with the software-based determination, this effect may be underestimated. Therefore, the calculated logD value is often higher than the experimentally determined value.
Samples were taken at 30 and 60 min and analyzed by radio-TLC and radio-HPLC.

Data set [5] can be described thus: Lipophilicity by shake-flask method (n-octanol/PBS). Conditions: n-octanol/PBS pH 7.4, ambient temperature, read-out: logD7.4. Format: physicochemical. The protocol: as §1
The tubes were shaken for 20 min using a mechanical shaker (HS250 basic, IKA Labortechnik GmbH & Co. KG, Staufen, Germany) followed by centrifugation (5000 rpm for 5 min) and separation of the phases. Aliquots of 1 mL of the organic and the aqueous phase were taken, and the activity was measured using an automated gamma counter (1480 WIZARD, Fa. Perkin Elmer, Waltham, MA, USA). The distribution coefficient (D) was calculated as [activity (cpm/mL) in n-octanol]/[(activity (cpm/mL) in PBS], specified as the decadic logarithm (logD).

The subject of data set [6] is hPDE2A. Conditions: cited from earlier work.
Data set [7] has as its system hPDE10A. Also on record: method as in PMID 24189054, PMID 23651455. Conditions: cited from earlier work.
The subject of data set [8] is PDE2A. The settings on record: cited from earlier work.
Data set [9] relates to PDE10A. Conditions: cited from earlier work.

For `COc1ccc(Cl)c(-c2nc(C)c3nnc4ccc(-c5ccnc(F)c5)cc4n23)c1` [BIT1, 1-(2-chloro-5-methoxyphenyl)-8-(2-fluoropyridin-4-yl)-3-methylbenzo[e]imidazo[5,1-c][1,2,4]triazine], in data set [1] (1.72 nM [18F]BIT1), the “decrease of [18F]BIT1 binding in caudate nucleus (Cd)” value is on record as ~ 50% and the “decrease of [18F]BIT1 binding in nucleus accumbens (Acb)” value was ~ 30%. Besides, the “decrease of [18F]BIT1 binding in cerebellum (Cb)” value in data set [1] (1.72 nM [18F]BIT1, non-PDE2A region) was 20–30%.

For the compound `COc1ccc(Cl)c(-c2nc(C)c3nnc4ccc(-c5ccnc([18F])c5)cc4n23)c1` [[^18F]BIT1], the “standardized uptake value (SUV) in brain” value in [2] is given as ~ 0.7. Also, the “intact tracer, fraction of total activity in brain” value in data set [3] (brain homogenate) was 78%. The “intact tracer, fraction of total activity in plasma” value in [3] came out at 43%. For the same compound, the “in vitro stability (radiochemical purity after incubation)” value in [4] is at least 99%. The logD in data set [5] turned out to be 1.81 ± 0.05.

`Cc1nc(-c2cnn(C)c2-c2ccc(C(F)(F)F)cc2)c2c(N3CC([18F])C3)ncnn12` [[^18F]PF-05270430]: the IC50 in data set [6] is 0.5 nM; in data set [7] it was above 3000 nM.

On to `COc1ccc2nnc3c(C)nc(-c4cc(OCCC[18F])ccc4F)n3c2n1` [[^18F]TA3], for which the IC50 is 11.4 nM in [8] and 318 nM in [9].

Regarding `COc1ccc2nnc3c(C)nc(-c4cc(OCCCC[18F])ccc4F)n3c2n1` [[^18F]TA4], the IC50 in data set [8] is 7.3 nM; in [9], 913 nM.

Consider `CCCCOc1ccc(F)c(-c2nc(C)c3nnc4ccc(OCC[18F])nc4n23)c1` [[^18F]TA5], for which, in data set [9], the IC50 was above 1000 nM.
